IC50 data for 50 compounds are collected here from patent US20110152243A1, “NOVEL THIENOPYRROLE COMPOUNDS” (ABBOTT LABORATORIES, priority 2009, published 2011).

The target of this experiment is PKCθ (Homo sapiens, UniProt Q04759). Description: PKCθ enzyme data at 1 mM ATP. The format is biochemical.
Sequence of PKCθ (Q04759 whole entry): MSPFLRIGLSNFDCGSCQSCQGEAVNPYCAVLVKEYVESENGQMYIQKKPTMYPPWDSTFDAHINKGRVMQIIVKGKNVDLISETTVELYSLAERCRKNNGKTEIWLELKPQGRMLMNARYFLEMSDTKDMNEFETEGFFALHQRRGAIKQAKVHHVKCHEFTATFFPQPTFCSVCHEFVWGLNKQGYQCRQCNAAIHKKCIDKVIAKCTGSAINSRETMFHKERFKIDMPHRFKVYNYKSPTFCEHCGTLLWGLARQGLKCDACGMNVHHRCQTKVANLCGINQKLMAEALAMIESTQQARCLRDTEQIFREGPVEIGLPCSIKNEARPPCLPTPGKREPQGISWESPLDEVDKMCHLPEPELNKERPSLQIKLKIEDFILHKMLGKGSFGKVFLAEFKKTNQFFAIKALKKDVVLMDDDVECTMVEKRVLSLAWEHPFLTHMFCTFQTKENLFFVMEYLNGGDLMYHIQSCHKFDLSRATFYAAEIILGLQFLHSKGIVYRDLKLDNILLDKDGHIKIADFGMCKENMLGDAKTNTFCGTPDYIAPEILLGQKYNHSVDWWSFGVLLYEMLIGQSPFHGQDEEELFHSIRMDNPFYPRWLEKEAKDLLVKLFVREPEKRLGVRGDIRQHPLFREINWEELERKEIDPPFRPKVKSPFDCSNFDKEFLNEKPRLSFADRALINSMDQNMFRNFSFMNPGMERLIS
Take `O=C1NC(=O)C(c2c[nH]c3ccsc23)=C1c1nc(N2CCN3CCC[C@@H]3C2)nc2ccccc12` [E.2.1, (R)-3-(2-(Hexahydropyrrolo[1,2-a]pyrazin-2(1H)-yl)quinazolin-4-yl)-4-(4H-thieno[3,2-b]pyrrol-6-yl)-1H-pyrrole-2,5-dione]: the IC50 was less than 100 nM.

For the compound `CN1CCC(Cn2cc(C3=C(c4c[nH]c5ccccc45)C(=O)NC3=O)c3ccsc32)CC1` [F.5.1], the IC50 is less than 100 nM. With `O=C1NC(=O)C(c2c[nH]c3sccc23)=C1c1nc(N2CCC3(CC2)CNC3)nc2ccccc12` [G.1.13], the IC50 is 100 to 500 nM. As for `CN1CCN(c2nccc(C3=C(c4c[nH]c5sccc45)C(=O)NC3=O)n2)CC1` [F.4.8], the figure is 500 to 1000 nM; as for `CN1CCN(c2nc(C3=C(c4c[nH]c5sccc45)C(=O)NC3=O)c3ccccc3n2)CC1` [F.1.1, 3-(2-(4-Methylpiperazin-1-yl)quinazolin-4-yl)-4-(6H-thieno[2,3-b]pyrrol-4-yl)-1H-pyrrole-2,5-dione], less than 100 nM.

For the compound `O=C1NC(=O)C(c2c[nH]c3sccc23)=C1c1nc(N2CCn3cncc3C2)nc2ccccc12` [E.1.46], the IC50 is less than 100 nM. The figure for `O=C1NC(=O)C(c2c[nH]c3sccc23)=C1c1nc(N2C[C@@H]3C[C@H]2CN3)nc2ccccc12` [G.1.2] is 100 to 500 nM. The figure for `CN1CCN(c2nc(C3=C(c4c[nH]c5ccsc45)C(=O)NC3=O)c3c(F)cccc3n2)CC1` [F.3.1, 3-(5-Fluoro-2-(4-methylpiperazin-1-yl)quinazolin-4-yl)-4-(4H-thieno[3,2-b]pyrrol-6-yl)-1H-pyrrole-2,5-dione] is less than 100 nM.

Take `CN1CCN(c2nc(C3=C(c4c[nH]c5ccsc45)C(=O)NC3=O)c3ccccc3n2)CC1` [F.1.2, 3-(2-(4-Methylpiperazin-1-yl)quinazolin-4-yl)-4-(4H-thieno[3,2-b]pyrrol-6-yl)-1H-pyrrole-2,5-dione]: the IC50 is less than 100 nM. As for `O=C1NC(=O)C(c2c[nH]c3ccsc23)=C1c1nc(N2CCN3C(=O)CCC3C2)nc2ccccc12` (centres unmarked) [E.2.9], the figure is 100 to 500 nM. `CN1CC[C@H](Cn2nc(C3=C(c4c[nH]c5sccc45)C(=O)NC3=O)c3ccccc32)[C@H](F)C1` (relative stereo) [F.4.4] displayed an IC50 of less than 100 nM. The figure for `CN(C)[C@H]1CCN(c2nc(C3=C(c4c[nH]c5sccc45)C(=O)NC3=O)c3ccccc3n2)C[C@H]1F` [E.1.33] is 100 to 500 nM; for `O=C1NC(=O)C(c2nn(C[C@H]3CCNC[C@H]3F)c3ccccc23)=C1c1c[nH]c2sccc12` (relative stereo) [G.1.17] it is less than 100 nM; for `CC(C1CCN(c2nc(C3=C(c4c[nH]c5sccc45)C(=O)NC3=O)c3ccccc3n2)CC1)N1CCOCC1` (centres unmarked) [E.1.2] it is 100 to 500 nM. `CN1CCN(C2CCN(c3nc(C4=C(c5c[nH]c6sccc56)C(=O)NC4=O)c4ccccc4n3)CC2)CC1` [E.1.8] came in with an IC50 of less than 100 nM. As for `O=C1NC(=O)C(c2c[nH]c3sccc23)=C1c1nc(N2CCC(CN3CCCC3)CC2)nc2ccccc12` [E.1.11], the figure is 100 to 500 nM. The figure for `CN(C)CC1CCN(c2nc(C3=C(c4c[nH]c5sccc45)C(=O)NC3=O)c3ccccc3n2)C1` (centres unmarked) [E.1.28] is 100 to 500 nM; for `O=C1NC(=O)C(c2c[nH]c3sccc23)=C1c1nc(N2CCNCC2)nc2ccccc12` [G.1.5] it is less than 100 nM. As for `CN(C)C1CCN(c2nc(C3=C(c4c[nH]c5sccc45)C(=O)NC3=O)c3ccccc3n2)CC1CO` (centres unmarked) [E.1.37], the figure is less than 100 nM; as for `CC1(N)CCN(c2nc(C3=C(c4c[nH]c5sccc45)C(=O)NC3=O)c3ccccc3n2)CC1` [G.1.10], less than 100 nM; as for `CC(C)(O)CN1CCN(c2nc(C3=C(c4c[nH]c5sccc45)C(=O)NC3=O)c3ccccc3n2)CC1` [E.1.55], less than 100 nM. The compound `O=C1NC(=O)C(c2c[nH]c3sccc23)=C1c1nc(N2CCC(CN3CCC3)CC2)nc2ccccc12` [E.1.17] gave an IC50 of less than 100 nM. As for `CN(C)C1(C)CCN(c2nc(C3=C(c4c[nH]c5sccc45)C(=O)NC3=O)c3ccccc3n2)CC1` [E.1.41], the figure is 100 to 500 nM.

Consider `CN(C)[C@H]1CC[C@@H](Cn2nc(C3=C(c4c[nH]c5sccc45)C(=O)NC3=O)c3ccccc32)CC1` [F.4.18], for which the IC50 was 100 to 500 nM. The figure for `O=C1NC(=O)C(c2nn(CC3CCNCC3)c3ccccc23)=C1c1c[nH]c2sccc12` [G.1.12] is less than 100 nM.

For the compound `COc1ccc2nc(N3CCN(C)CC3)nc(C3=C(c4c[nH]c5sccc45)C(=O)NC3=O)c2c1` [F.4.14], the IC50 was less than 100 nM.

Turning to `NC1(C(=O)NC2CC2)CCN(c2nc(C3=C(c4c[nH]c5sccc45)C(=O)NC3=O)c3ccccc3n2)CC1` [E.1.58], the IC50 is less than 100 nM.

Turning to `CCN1CCC(Cn2nc(C3=C(c4c[nH]c5sccc45)C(=O)NC3=O)c3ccccc32)CC1` [F.4.19], the IC50 was in the range of 100 to 500 nM. The figure for `O=C1NC(=O)C(c2c[nH]c3ccsc23)=C1c1nc(NCC2CCCCN2)nc2ccccc12` (centres unmarked) [G.1.9] is 500 to 1000 nM; for `CN1CCN(c2cc(C3=C(c4c[nH]c5ccsc45)C(=O)NC3=O)c3ccccc3n2)CC1` [F.3.3] it is less than 100 nM. As for `O=C1NC(=O)C(c2c[nH]c3sccc23)=C1c1nc(N2CCn3c(nnc3C(F)(F)F)C2)nc2ccccc12` [E.1.20], the figure is 100 to 500 nM; as for `CC(C1CCN(C)CC1)n1nc(C2=C(c3c[nH]c4sccc34)C(=O)NC2=O)c2ccccc21` (centres unmarked) [F.4.35], 500 to 1000 nM.

Turning to `CN1CC[C@@H]2CN(c3nc(C4=C(c5c[nH]c6sccc56)C(=O)NC4=O)c4ccccc4n3)CC[C@@H]21` [E.1.59], the IC50 is less than 100 nM. In turn, `CC(C1CCN(c2nc(C3=C(c4c[nH]c5sccc45)C(=O)NC3=O)c3ccccc3n2)CC1)N(C)C` (centres unmarked) [E.1.12] had an IC50 of 100 to 500 nM. The figure for `CCc1ncc2n1CCN(c1nc(C3=C(c4c[nH]c5sccc45)C(=O)NC3=O)c3ccccc3n1)C2` [E.1.47] is less than 100 nM; for `CN1CC2CCN(c3nc(C4=C(c5c[nH]c6sccc56)C(=O)NC4=O)c4ccccc4n3)CC2C1` (centres unmarked) [E.1.39] it is less than 100 nM; for `CN1CCC(n2nc(C3=C(c4c[nH]c5sccc45)C(=O)NC3=O)c3ccccc32)CC1` [F.4.7] it is 100 to 500 nM. As for `CN1CCC(Cc2cn(C3=C(c4c[nH]c5sccc45)C(=O)NC3=O)c3ccccc23)CC1` [F.4.37], the figure is less than 100 nM; as for `CC(C1CCN(c2nc(C3=C(c4c[nH]c5sccc45)C(=O)NC3=O)c3ccccc3n2)CC1)N1CCCC1` (centres unmarked) [E.1.4], 500 to 1000 nM.

Take `CN(C)CCCCn1nc(C2=C(c3c[nH]c4sccc34)C(=O)NC2=O)c2ccccc21` [F.4.27]: the IC50 lay in the range of 500 to 1000 nM. The figure for `N#CC1CCN(c2nc(C3=C(c4c[nH]c5sccc45)C(=O)NC3=O)c3ccccc3n2)CC1` [E.1.9] is 100 to 500 nM; for `O=C1NC(=O)C(c2c[nH]c3sccc23)=C1c1nc(N2CCN3CCC[C@@H]3C2)nc2ccccc12` [E.1.1, (R)-3-(2-(Hexahydropyrrolo[1,2-a]pyrazin-2(1H)-yl)quinazolin-4-yl)-4-(6H-thieno[2,3-b]pyrrol-4-yl)-1H-pyrrole-2,5-dione] it is less than 100 nM; for `O=C1NC(=O)C(c2c[nH]c3sccc23)=C1c1nc(N2CCN3C(=O)OCC3C2)nc2ccccc12` (centres unmarked) [E.1.15] it is 500 to 1000 nM. As for `Cn1cnc2c1CCN(c1nc(C3=C(c4c[nH]c5sccc45)C(=O)NC3=O)c3ccccc3n1)C2` [E.1.54], the figure is less than 100 nM; as for `C[C@@H]1CN(C2CCN(c3nc(C4=C(c5c[nH]c6sccc56)C(=O)NC4=O)c4ccccc4n3)CC2)C[C@H](C)O1` [E.1.6], 100 to 500 nM; as for `O=C1NC(=O)C(c2c[nH]c3ccsc23)=C1c1nc(N2CC3CNCC3C2)nc2ccccc12` (centres unmarked) [G.1.3], 500 to 1000 nM. The figure for `NC1(CO)CCN(c2nc(C3=C(c4c[nH]c5sccc45)C(=O)NC3=O)c3ccccc3n2)CC1` [E.1.57] is less than 100 nM; for `O=C1NC(=O)C(c2nn(C3CCNCC3)c3ccccc23)=C1c1c[nH]c2sccc12` [G.1.11] it is 100 to 500 nM.

Take `O=C1NC(=O)C(c2c[nH]c3sccc23)=C1c1nc(N2CCC(N3CCC3)CC2)nc2ccccc12` [E.1.13]: the IC50 was less than 100 nM. The figure for `O=C1NC(=O)C(c2c[nH]c3ccsc23)=C1c1nc(N2CCn3ccnc3C2)nc2ccccc12` [E.2.7] is less than 100 nM.
